In ChEMBL document CHEMBL1201862, “PubChem BioAssay data set” (2004):
Calls of active or inactive are those of the source. Rule as the data show it, for most assays here: actives have a measured EC50 and inactives only a lower limit.

Assays:
Cytochrome P450 3A4 = Cytochrome P450 3A4 (Homo sapiens, UniProt P08684); details: Potency;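 also: confirmatory qHTS run detecting inhibitors and substrates of CYP3A4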
cells [1] = assay type: functional, cell-based
cells [2] = assay type: functional, cell-based; remark: listed apart in the source
Fatty acid synthase [3] = molecular target: T1, Fatty acid synthase (Homo sapiens, UniProt P49327); assay: inhibition of human FAS-TE enzyme activity – biochemical, endpoint fluorescence intensity, uHTS hits, dose response (AID 624327); assay type: functional;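 also: fluorescence from hydrolysis of an O-methyl fluorescein acyl ester substrate by the enzyme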
Genome polyprotein = Genome polyprotein (dengue virus type 2, UniProt P29990); assay: flavivirus cap methylation enzyme inhibition – biochemical, confirmation dose response, primary screen (AID 588689); assay type: functional
[4] = molecular target: Luciferin 4-monooxygenase (Photinus pyralis, UniProt P08659); assay: inhibition of purified Photinus pyralis luciferase – biochemical, luminescence, dose response (AID 1891)
Fatty acid synthase [5] = molecular target: T1, Fatty acid synthase; assay: inhibition of human FAS-TE enzyme activity – biochemical, kinetic fluorescence intensity, dose response (AID 624326); assay type: functional;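 also: rate of fluorescence rise from hydrolysis of a fluorogenic O-methyl fluorescein ester substrate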
[6] = Luminescence Cell-Based Dose Confirmation HTS to Identify Inhibitors of Platelet Dense Granule Release. [Related pubchem assays: 1663 (Primary HTS), 1678 (Summary of Project)]; assay type: functional
[7] = molecular target: G-protein coupled receptor 55 (Homo sapiens, UniProt Q9Y2T6); assay: inhibition of LPI-stimulated GPR55 beta-arrestin translocation – imaging, U2OS, beta-arrestin-GFP, LPI agonist, primary screen (AID 2013); assay type: functional;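 also: antagonist potency measured as reduced agonist-driven arrestin aggregation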
Streptokinase A = molecular target: T2, Streptokinase A (Streptococcus pyogenes serotype M1, UniProt P10520); assay: viability-normalized secreted streptokinase activity reduction – plasminogen activation absorbance, OD405, dose response (AID 1914); assay type: functional, Streptococcus pyogenes M1 GAS;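 also: secreted streptokinase activity via plasminogen activation per viability signal from cell pellet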
T2 sequence (P10520 whole entry): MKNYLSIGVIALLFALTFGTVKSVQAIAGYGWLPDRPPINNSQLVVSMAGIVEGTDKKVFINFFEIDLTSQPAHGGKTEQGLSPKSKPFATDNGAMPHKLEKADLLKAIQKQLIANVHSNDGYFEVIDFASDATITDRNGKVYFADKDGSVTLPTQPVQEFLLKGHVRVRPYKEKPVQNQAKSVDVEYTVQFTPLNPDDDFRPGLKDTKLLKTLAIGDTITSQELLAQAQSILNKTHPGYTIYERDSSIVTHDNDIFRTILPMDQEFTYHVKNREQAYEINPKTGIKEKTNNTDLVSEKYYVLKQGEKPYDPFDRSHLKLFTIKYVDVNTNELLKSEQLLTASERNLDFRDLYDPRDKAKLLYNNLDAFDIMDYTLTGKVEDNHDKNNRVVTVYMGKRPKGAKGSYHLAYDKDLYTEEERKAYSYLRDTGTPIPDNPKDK

Streptococcus = assay: GAS UMAA2166 growth inhibition – luminescence, BacTiterGlo, counter-screen for streptokinase expression inhibitor project, dose response (AID 1915); assay type: functional, organism-based;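 also: potency for reduction of bacterial viability or growth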
H4 = assay: Luminescence Cell-Based Dose Response HTS to Identify Activators of 5'UTR Stem-Loop Driven Prion Protein mRNA Translation in H4 Neuroglioblastoma Cells. [Related pubchem assays: 1829 (Project Summary), 1814 (Primary HTS)]; assay type: functional; details: Homo sapiens
[8] = Luminescence Cell-Based Dose Response HTS to Identify Activators of Luciferase Translation or Activity in H4 […] Cells. [Related pubchem assays: 1829 (Project Summary), 1814 (Primary HTS)]; assay type: functional
[9] = Luminescence Cell-Based Dose Confirmation HTS to Identify Activators of 5'UTR Stem-Loop Driven Alpha-Synuclein mRNA Translation in H4 Neuroglioblastoma Cells. [Related pubchem assays: 1829 (Project Summary), 1814 (Primary HTS)]; assay type: functional
[10] = molecular target: Induced myeloid leukemia cell differentiation protein Mcl-1 (Homo sapiens, UniProt Q07820); assay type: functional
[11] = molecular target: T3, Histone-lysine N-methyltransferase NSD2 (Homo sapiens, UniProt O96028); assay type: biochemical
T3 sequence (O96028 whole entry): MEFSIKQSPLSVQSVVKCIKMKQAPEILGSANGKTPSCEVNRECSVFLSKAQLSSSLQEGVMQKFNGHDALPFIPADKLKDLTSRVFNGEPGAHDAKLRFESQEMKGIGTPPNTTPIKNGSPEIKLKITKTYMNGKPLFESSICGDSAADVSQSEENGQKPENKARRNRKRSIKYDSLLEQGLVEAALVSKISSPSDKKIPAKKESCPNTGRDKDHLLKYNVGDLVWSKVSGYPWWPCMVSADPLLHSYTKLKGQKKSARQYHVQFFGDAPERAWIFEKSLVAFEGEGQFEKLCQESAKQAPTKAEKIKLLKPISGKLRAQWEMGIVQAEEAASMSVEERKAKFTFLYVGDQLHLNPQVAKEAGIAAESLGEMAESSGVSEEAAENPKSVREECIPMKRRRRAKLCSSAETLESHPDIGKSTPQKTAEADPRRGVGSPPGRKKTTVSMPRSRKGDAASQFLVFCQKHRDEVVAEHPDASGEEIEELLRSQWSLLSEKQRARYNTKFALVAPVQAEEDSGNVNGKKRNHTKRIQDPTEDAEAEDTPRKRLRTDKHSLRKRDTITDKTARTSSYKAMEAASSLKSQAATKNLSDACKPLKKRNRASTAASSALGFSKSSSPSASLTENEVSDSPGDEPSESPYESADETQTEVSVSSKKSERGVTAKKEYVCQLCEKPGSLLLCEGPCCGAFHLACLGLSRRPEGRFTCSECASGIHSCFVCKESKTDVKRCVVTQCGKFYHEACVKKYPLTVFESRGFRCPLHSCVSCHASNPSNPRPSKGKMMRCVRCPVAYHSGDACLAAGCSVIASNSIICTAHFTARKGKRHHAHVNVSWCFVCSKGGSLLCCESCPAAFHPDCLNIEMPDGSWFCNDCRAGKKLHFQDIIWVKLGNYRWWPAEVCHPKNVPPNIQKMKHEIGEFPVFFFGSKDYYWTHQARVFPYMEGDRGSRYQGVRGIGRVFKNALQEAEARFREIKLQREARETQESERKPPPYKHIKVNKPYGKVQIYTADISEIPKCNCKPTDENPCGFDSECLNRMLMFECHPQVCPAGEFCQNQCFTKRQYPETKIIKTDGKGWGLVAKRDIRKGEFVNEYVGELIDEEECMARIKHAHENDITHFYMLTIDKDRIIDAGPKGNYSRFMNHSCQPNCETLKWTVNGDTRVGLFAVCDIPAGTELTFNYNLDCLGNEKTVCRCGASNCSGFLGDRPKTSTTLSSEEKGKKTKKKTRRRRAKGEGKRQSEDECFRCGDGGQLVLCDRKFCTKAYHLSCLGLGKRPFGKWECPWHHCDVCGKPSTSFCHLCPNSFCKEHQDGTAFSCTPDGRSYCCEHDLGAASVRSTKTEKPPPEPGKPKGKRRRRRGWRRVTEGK

Protein RecA = molecular target: T4, Protein RecA (Mycobacterium tuberculosis, UniProt P9WHJ3); assay: Fluorescence Cell-Free Homogeneous Dose Retest to Identify Inhibitors of RecA-Intein Splicing Activity. [Related pubchem assays (depositor defined):AID2097, AID2223, AID489010, AID492950]; assay type: functional
T4 sequence (P9WHJ3 whole entry): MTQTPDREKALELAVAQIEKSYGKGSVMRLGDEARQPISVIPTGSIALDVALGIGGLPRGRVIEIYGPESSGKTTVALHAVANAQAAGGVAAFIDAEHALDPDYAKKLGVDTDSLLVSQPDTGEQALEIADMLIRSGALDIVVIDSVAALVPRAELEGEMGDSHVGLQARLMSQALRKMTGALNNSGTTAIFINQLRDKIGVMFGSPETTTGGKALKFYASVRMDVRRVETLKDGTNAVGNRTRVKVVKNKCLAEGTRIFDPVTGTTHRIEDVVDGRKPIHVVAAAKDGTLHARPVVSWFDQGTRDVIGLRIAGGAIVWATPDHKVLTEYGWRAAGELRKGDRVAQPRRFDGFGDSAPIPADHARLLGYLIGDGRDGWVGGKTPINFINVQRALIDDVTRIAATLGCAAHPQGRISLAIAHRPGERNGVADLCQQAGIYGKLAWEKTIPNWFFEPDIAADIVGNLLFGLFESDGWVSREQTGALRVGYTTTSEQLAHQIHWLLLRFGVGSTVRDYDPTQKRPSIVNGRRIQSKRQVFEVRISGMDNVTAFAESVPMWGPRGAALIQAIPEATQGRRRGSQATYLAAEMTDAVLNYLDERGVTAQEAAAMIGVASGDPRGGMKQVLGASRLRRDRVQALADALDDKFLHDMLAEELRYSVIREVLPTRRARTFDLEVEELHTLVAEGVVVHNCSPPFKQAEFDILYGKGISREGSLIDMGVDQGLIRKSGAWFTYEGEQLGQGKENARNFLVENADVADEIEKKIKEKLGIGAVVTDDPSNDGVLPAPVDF

[12] = molecular target: T5, Replicative DNA helicase DnaB (Mycobacterium tuberculosis, UniProt P9WMR3); assay: DnaB intein splicing inhibitors, dose response, biochemical, cell-free fluorescence (AID 449749); assay type: functional
T5 sequence (P9WMR3 whole entry): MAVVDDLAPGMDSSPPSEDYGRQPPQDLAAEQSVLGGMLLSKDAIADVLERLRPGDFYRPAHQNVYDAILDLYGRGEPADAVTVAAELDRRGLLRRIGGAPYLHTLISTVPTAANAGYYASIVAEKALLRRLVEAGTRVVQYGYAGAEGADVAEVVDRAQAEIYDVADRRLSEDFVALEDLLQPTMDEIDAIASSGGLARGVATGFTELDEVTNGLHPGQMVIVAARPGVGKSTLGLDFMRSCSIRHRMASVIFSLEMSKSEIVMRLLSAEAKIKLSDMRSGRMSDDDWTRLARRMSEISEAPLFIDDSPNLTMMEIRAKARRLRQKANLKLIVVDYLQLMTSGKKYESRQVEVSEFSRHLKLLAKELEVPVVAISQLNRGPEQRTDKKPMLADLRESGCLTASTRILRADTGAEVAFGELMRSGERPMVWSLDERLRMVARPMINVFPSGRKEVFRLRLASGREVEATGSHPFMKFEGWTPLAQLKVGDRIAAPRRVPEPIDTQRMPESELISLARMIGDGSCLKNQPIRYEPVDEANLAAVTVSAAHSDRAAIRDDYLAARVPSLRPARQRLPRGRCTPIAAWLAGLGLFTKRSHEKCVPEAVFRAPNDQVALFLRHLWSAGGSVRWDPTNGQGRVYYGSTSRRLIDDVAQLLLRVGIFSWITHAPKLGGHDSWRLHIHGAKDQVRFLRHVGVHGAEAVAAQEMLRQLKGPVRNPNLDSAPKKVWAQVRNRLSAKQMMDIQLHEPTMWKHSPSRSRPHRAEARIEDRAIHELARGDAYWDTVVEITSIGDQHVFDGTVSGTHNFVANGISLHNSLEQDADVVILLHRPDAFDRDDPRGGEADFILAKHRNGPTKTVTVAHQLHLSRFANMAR

[13] = THP-1 cell cytotoxicity, dose response, cytotoxicity control for non-replicating M. tuberculosis project (AID 489025); assay type: functional

Sequence of Cytochrome P450 3A4 (P08684 whole entry): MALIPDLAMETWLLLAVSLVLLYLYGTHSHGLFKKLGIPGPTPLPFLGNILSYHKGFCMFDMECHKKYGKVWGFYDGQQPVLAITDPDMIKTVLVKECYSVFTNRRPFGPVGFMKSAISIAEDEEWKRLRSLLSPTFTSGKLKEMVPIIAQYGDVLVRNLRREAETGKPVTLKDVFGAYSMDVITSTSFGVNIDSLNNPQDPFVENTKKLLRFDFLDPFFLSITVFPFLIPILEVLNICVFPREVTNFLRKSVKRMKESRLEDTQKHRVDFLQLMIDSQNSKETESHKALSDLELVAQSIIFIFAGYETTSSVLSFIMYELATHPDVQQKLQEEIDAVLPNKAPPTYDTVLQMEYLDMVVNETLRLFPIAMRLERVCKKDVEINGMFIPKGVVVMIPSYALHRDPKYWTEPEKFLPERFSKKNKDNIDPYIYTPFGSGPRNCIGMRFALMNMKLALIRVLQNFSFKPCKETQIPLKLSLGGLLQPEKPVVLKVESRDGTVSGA
Sequence of G-protein coupled receptor 55 (Q9Y2T6 whole entry): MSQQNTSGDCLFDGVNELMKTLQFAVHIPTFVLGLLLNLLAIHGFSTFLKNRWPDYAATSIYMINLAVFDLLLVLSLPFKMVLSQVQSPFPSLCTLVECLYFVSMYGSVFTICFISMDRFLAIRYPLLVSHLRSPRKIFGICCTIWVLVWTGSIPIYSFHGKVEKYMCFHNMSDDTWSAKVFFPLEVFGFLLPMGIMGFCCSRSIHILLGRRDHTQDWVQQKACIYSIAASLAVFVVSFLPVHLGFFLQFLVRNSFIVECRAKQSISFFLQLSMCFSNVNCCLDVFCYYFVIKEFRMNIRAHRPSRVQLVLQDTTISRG
T1 sequence (P49327 whole entry): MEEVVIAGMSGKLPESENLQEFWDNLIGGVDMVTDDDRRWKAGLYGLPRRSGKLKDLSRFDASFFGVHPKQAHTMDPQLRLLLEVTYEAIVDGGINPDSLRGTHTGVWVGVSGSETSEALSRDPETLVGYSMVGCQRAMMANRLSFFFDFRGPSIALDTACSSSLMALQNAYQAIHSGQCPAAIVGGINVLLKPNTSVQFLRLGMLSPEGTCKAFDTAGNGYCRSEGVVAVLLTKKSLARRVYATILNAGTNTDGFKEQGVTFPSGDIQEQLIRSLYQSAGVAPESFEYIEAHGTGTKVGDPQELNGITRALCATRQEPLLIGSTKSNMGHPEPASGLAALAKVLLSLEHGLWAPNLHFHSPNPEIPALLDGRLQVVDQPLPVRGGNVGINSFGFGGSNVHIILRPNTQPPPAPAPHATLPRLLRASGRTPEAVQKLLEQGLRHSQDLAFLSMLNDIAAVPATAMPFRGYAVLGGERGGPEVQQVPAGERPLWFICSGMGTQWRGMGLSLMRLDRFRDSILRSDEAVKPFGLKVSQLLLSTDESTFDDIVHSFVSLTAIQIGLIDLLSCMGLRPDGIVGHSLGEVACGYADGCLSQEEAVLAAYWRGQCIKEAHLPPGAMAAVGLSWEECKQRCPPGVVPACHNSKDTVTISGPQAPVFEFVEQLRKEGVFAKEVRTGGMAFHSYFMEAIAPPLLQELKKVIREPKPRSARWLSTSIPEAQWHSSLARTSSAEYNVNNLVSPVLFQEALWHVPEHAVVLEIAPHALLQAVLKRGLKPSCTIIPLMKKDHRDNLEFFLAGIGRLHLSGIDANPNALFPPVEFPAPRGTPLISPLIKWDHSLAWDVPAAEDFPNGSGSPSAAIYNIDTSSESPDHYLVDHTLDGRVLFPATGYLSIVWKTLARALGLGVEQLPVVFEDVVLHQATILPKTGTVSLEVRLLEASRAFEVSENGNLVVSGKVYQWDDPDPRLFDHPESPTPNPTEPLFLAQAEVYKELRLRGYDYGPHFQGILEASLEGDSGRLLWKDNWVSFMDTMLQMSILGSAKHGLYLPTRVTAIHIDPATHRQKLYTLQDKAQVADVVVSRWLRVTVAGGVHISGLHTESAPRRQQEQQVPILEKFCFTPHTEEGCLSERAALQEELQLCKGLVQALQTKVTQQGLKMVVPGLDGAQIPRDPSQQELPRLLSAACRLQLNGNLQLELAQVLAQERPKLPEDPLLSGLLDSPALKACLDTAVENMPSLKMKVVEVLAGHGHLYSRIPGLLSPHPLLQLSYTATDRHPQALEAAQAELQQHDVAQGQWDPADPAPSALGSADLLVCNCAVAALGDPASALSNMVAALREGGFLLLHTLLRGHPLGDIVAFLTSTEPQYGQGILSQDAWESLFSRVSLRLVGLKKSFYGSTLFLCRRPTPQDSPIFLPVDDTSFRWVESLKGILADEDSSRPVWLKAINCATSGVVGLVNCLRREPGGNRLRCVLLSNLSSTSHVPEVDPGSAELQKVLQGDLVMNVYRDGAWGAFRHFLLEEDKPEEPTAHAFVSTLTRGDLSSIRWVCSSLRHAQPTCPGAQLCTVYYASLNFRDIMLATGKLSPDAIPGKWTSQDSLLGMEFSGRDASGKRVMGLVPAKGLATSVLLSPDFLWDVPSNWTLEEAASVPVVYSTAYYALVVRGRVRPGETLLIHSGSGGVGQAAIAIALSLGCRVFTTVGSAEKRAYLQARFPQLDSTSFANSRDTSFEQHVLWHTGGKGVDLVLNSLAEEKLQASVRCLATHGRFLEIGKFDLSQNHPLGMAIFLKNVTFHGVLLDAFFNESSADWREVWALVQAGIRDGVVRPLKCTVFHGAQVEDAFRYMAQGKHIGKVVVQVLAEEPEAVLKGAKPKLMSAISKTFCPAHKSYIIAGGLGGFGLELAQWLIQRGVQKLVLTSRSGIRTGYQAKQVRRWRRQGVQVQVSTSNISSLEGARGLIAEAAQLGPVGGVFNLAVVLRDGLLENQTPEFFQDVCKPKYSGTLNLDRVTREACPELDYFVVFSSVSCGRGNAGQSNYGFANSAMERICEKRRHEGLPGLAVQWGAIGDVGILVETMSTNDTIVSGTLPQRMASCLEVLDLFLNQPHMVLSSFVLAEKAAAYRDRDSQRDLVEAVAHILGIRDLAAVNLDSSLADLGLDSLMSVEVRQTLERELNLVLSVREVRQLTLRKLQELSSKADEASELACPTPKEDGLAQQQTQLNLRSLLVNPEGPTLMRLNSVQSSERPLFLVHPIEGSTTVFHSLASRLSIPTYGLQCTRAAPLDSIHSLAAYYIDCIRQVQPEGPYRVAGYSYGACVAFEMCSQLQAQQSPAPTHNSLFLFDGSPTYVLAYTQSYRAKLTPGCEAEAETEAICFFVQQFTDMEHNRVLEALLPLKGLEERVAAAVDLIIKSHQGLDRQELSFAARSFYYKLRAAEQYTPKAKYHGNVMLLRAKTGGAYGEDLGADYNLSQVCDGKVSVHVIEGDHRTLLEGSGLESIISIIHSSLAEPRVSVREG
Sequence of Genome polyprotein (P29990 2492-3391 limits assumed): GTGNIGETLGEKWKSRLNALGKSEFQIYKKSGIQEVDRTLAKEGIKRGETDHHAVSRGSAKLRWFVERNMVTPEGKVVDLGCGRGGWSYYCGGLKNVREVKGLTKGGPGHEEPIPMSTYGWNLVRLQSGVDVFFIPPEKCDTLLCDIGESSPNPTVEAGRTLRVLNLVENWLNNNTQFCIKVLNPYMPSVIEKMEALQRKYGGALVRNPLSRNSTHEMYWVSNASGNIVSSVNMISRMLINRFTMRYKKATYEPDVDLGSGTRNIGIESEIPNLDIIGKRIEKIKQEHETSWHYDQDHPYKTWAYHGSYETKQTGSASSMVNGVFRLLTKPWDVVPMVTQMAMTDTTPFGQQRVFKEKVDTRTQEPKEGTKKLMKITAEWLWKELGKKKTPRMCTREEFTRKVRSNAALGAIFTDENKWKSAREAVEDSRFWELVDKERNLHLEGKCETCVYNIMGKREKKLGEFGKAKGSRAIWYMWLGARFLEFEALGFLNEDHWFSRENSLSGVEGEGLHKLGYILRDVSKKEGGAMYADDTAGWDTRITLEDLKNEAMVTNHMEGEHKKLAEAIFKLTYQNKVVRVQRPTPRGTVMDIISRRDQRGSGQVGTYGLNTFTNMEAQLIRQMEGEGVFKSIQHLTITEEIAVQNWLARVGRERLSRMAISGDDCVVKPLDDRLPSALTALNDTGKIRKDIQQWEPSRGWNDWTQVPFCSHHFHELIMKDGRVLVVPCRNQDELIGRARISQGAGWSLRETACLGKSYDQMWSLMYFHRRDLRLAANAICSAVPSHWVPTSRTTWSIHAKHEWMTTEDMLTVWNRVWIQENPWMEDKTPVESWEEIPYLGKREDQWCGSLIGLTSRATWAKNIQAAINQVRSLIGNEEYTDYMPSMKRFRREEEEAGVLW
Sequence of Induced myeloid leukemia cell differentiation protein Mcl-1 (Q07820 whole entry): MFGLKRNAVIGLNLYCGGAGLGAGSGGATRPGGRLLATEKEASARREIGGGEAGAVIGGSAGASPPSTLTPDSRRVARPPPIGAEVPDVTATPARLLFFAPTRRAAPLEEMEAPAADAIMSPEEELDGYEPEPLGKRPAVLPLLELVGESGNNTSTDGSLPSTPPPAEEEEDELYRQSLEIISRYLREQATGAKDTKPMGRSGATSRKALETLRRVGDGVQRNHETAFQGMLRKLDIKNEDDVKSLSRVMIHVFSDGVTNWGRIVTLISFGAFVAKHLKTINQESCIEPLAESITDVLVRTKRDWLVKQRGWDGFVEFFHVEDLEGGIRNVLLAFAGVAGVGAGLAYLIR

SMILES: CCCCC(CC)COCCCN (stereo not drawn)
- AC50 (Cytochrome P450 3A4): 31.6 µM (inconclusive)

SMILES: COC(=O)c1ccc(CN2[C@H](C(=O)OC)C[C@@]3(O)[C@H](O)[C@H](O)[C@H](O)C[C@@H]23)cc1
- AC50 (Cytochrome P450 3A4): 12.6 µM (inconclusive)

SMILES: O=C(CSc1nnc(-c2ccncc2)o1)N1CCCCCC1
- EC50 (cells [1]): > 350 µM (not active)
- EC50 (cells [2]): > 350 µM (not active)

SMILES: Cc1cc(S(=O)(=O)ON2C(=O)c3ccccc3C2=O)ccc1F
- IC50 (Fatty acid synthase [3]): 2.43 µM (active)
- IC50 (Genome polyprotein): > 100 µM (active)
- EC50 (cells [1]): > 350 µM (not active)
- EC50 [4]: > 112 µM (not active)
- EC50 (cells [2]): > 350 µM (not active)
- IC50 (Fatty acid synthase [5]): 2.07 µM (active)
- EC50 [6]: > 112 µM (not active)

SMILES: CCC(=O)N1CCc2cc(S(=O)(=O)NCCC(=O)N3CCN(c4cccc(OC)c4)CC3)ccc21
- EC50 (cells [1]): > 350 µM (not active)
- EC50 (cells [2]): > 350 µM (not active)

SMILES: COC(=O)[C@@]1(C)C[C@@H]1[C@@H](NC(=O)[C@@]1(C)C[C@@H]1[C@@H](NC(=O)[C@@]1(C)C[C@@H]1[C@@H](NC(=O)[C@@]1(C)C[C@@H]1[C@@H](NC(=O)OCc1ccccc1)c1ccccc1)c1ccccc1)c1ccccc1)c1ccccc1
- AC50 (Cytochrome P450 3A4): 0.2 µM (inconclusive)

SMILES: CCCn1c(-c2ccc(F)cc2)nc2c(N(C)CCN(C)C)nc(C)nc21
- AC50 (Cytochrome P450 3A4): 25.1 µM (inconclusive)

SMILES: COc1ccc(CNCc2cc3c(C(C)(C)C)nn(-c4ccccc4)c3[nH]c2=O)cc1
- IC50 [7]: 2.18 µM (active)

SMILES: COC(=O)c1c(NC(NC(=O)C(C)(C)C)C(Cl)(Cl)Cl)sc2c1CCC2 (stereo not drawn)
- EC50 (Streptokinase A): 2.8 µM (active)
- IC50 [7]: 2.01 µM (active)
- EC50 (Streptococcus): 20.3 µM (active)

SMILES: COc1ccc2c(c1)c(C(=O)CN1CCc3ccccc3C1)c(C)n2C
- EC50 (cells [1]): > 350 µM (not active)
- EC50 (cells [2]): > 350 µM (not active)

SMILES: N=C(NOC(=O)Cc1cccs1)c1ccccc1
- EC50 (H4): 9.96 µM (active)
- EC50 [8]: 11.1 µM (active)
- EC50 (cells [1]): 20.7 µM (active)
- EC50 [9]: 3.81 µM (active)
- EC50 (cells [2]): > 350 µM (not active)

SMILES: CNCc1ccccc1OCc1ccccc1F
- IC50 [10]: 0.557 µM (active)
- AC50 [11]: > 20 µM (inactive)

SMILES: O=S(=O)(Nc1ccc(O)c2ccccc12)c1ccc(F)cc1
- EC50 (Protein RecA): 0.0466 µM (active)
- AC50 [12]: 0.214 µM (active)
- CC50 [13]: > 40 µM (active)

SMILES: COc1c(O)cc2c(-c3ccccc3)cc(=O)oc2c1OC [KUHLMANNIN]
- AC50 (Cytochrome P450 3A4): 31.6 µM (inconclusive)

SMILES: CC1(C)C2(Cl)C(Cl)C(Cl)C(Cl)(C(Cl)Cl)C1(Cl)C2Cl (stereo not drawn) [STROBANE]
- AC50 (Cytochrome P450 3A4): 15.8 µM (inconclusive)
